“And” between values parts separate entries of the source, which are not always exact repeats. Equal entries are not always repeated. “Also recorded” adds a separate entry of the source.
Key:
rat thoracic aorta rings [1] = assay type: cell-based; details: percentage of KCl (40 mM) contraction; at 10^−5.5M
Procedure: Binding and functional experiments were performed at least in triplicate and data, expressed as mean±S.E.M, were analyzed using the Prism software (Graph Pad Software, San Diego, Calif.). In all experiments, n represents the total number of animals studied or individual assays performed. The EC50, pEC50, pIC50 values as well as the Emax value were determined from the concentration-response curves using a sigmoidal dose-response fit with variable slope. […] The slope is calculated from the double reciprocal plot of equiactive concentrations of agonist in the presence and absence of antagonist.

rat thoracic aorta rings [2] = assay: Antagonism of UII- or URP-induced contraction of rat aortic ring; assay type: cell-based
Procedure: Male rats (Sprague-Dawley, 250-300 g) were killed by CO2 asphyxiation. The thoracic aorta was then cleared of surrounding tissues and excised from aortic arch to the diaphragm. From each vessel, conjunctive tissues were removed and the clean vessel was cut into 4 mm rings. The endothelium was removed by gently rubbing the vessel's intimal surface. All preparations were placed in 5 ml organ baths filled with oxygenated normal Krebs-Henselheit solution. Contractile responses to 40 mM KCl were used as control at the beginning and at the end of each experiment. Agonistic activity was measured by increasing the concentration of the peptide in the organ chamber (3×10^−11-3×10^−6 M). For antagonist behaviour, thoracic aortic rings were first exposed to URP derivative over a period of 15 min, and then cumulative concentration-response curves to hUII, URP or ET-1 (10^−10-3×10^−6 M) were constructed. The amplitude of the contraction induced by each concentration of peptide was expressed as a percentage of the KCl-induced contraction. Finally, the ability of the antagonist to reverse the hUII-induced contraction was also evaluated. Vessels were pre-contracted with 4 nM hUII (pre-determined EC80) and after the maximum contraction was attained, contractile tone was reversed by adding increasing log unit concentrations of URP derivative. […] Binding and functional experiments were performed at least in triplicate and data, expressed as mean±S.E.M, were analyzed using the Prism software (Graph Pad Software, San Diego, Calif.). In all experiments, n represents the total number of animals studied or individual assays performed. The EC50, pEC50, pIC50 values as well as the Emax value were determined from the concentration-response curves using a sigmoidal dose-response fit with variable slope. Non-competitive antagonist affinities (pKb) were determined using the method of Gaddum where equiactive concentrations of agonist, in the absence or presence of URP derivative, were compared in a linear regression. The resulting slope was used to calculate the equilibrium constant Kb using the following equation: Kb=[B]/(slope−1); where [B] is the antagonist concentration. The slope is calculated from the double reciprocal plot of equiactive concentrations of agonist in the presence and absence of antagonist.

rat thoracic aorta rings [3] = assay: Effect on ET-1-induced contraction of rat aortic ring; assay type: cell-based; details: [Bip^4]URP 10^−6M
Procedure: Male rats (Sprague-Dawley, 250-300 g) were killed by CO2 asphyxiation. The thoracic aorta was then cleared of surrounding tissues and excised from aortic arch to the diaphragm. From each vessel, conjunctive tissues were removed and the clean vessel was cut into 4 mm rings. The endothelium was removed by gently rubbing the vessel's intimal surface. All preparations were placed in 5 ml organ baths filled with oxygenated normal Krebs-Henselheit solution. Contractile responses to 40 mM KCl were used as control at the beginning and at the end of each experiment. Agonistic activity was measured by increasing the concentration of the peptide in the organ chamber (3×10^−11-3×10^−6 M). For antagonist behaviour, thoracic aortic rings were first exposed to URP derivative over a period of 15 min, and then cumulative concentration-response curves to hUII, URP or ET-1 (10^−10-3×10^−6 M) were constructed. The amplitude of the contraction induced by each concentration of peptide was expressed as a percentage of the KCl-induced contraction. Finally, the ability of the antagonist to reverse the hUII-induced contraction was also evaluated. Vessels were pre-contracted with 4 nM hUII (pre-determined EC80) and after the maximum contraction was attained, contractile tone was reversed by adding increasing log unit concentrations of URP derivative.

anaesthetized rats = assay: Hemodynamic assessment (arterial blood pressure) in anaesthetized rats; assay type: in vivo, rat; details: for Intrinsic effect on blood pressure: anaesthetized rats
Procedure: Male Sprague-Dawley rats, weighing 350-400 g, were anaesthetized by isoflurane inhalation delivered in 100% oxygen (1 l/min) from an Ohmeda Tec 4 anaesthetic vaporizer (Somatechnology, Inc., Bloomfield, Conn., USA). Anaesthesia was maintained by mask inhalation of isoflurane vaporized at concentrations of up to 3% in the induction phase, at 1.5% during acute surgical procedures and at 0.8-1.0% during experimental observations. […]. […] A period of stabilisation of 30 min was observed and the following experimental protocols were then performed and arterial blood pressure was evaluated. During isoflurane inhalation, no breathing complications or changes in blood pressure were observed. […].
In a preliminary study, individual rats received a single i.v. injection of hUII ranging from 1 to 30 nmol/kg. A dose-response curve, reflecting the effect of hUII on the change in blood pressure, was then determined.
In this set of experiments, five groups of rats were used. […] […]. Hemodynamic changes were continuously captured by the pressure probe over a period of 1 h. The maximum rise and the maximum drop in blood pressure was determined and analyzed using the PowerLab software (ADInstruments, Colorado Springs, Colo., USA).
In the control group, the rats received two doses of hUII (10 nmol/kg) with a 30 min interval between the first and second injection.

[4] = 1000 nmol/kg bolus, 30 min before hUII 10 nmol/kg

CC(C)[C@H](NC(=O)[C@@H]1CSSC[C@H](NC(=O)[C@H](C)N)C(=O)N[C@@H](Cc2ccccc2)C(=O)N[C@@H](Cc2ccc(-c3ccccc3)cc2)C(=O)N[C@@H](CCCCN)C(=O)N[C@@H](Cc2ccc(O)cc2)C(=O)N1)C(=O)O [[Bip^4]URP, H-Ala-Cys-Phe-Bip-Lys-Tyr-Cys-Val-OH]
Aortic Ring contraction Emax (%), maximum efficacy at 10^−5.5M (rat thoracic aorta rings [1]): 8.7%
Effect on URP-induced contraction (in words) (rat thoracic aorta rings [2]): but not URP
Effect on hUII-induced contraction (in words) (rat thoracic aorta rings [2]): suppressed the maximum contractile response to hUII in a concentration-dependent manner
pKb (non-competitive antagonism of hUII) (rat thoracic aorta rings [2]; 1 μM [Bip^4]URP, method of Gaddum): 7.15
Slope of double reciprocal plot of equiactive hUII concentrations (method of Gaddum) (rat thoracic aorta rings [2]; absence and presence of 1 μM [Bip^4]URP): 15.00±0.62 and 15.0±0.6
Effect on ET-1-induced contraction (in words) (rat thoracic aorta rings [3]): not able to alter the concentration-response curves; also recorded: did not inhibit or potentiate
Effect on hUII hemodynamic profile (anaesthetized rats; 0.1 μmol/kg): no effect
Intrinsic effect on blood pressure (anaesthetized rats; 100 nmol/kg (0.1 μmol/kg) i.v.): No effect
Intrinsic effect on blood pressure (anaesthetized rats; 100 nmol/kg (0.1 μmol/kg) i.v., listed as urocontrin): no detectable effect
Intrinsic effect on blood pressure (anaesthetized rats; 1000 nmol/kg (1 μmol/kg) i.v.): hypotensive effect comparable with that of hUII
Intrinsic effect on blood pressure (anaesthetized rats; 1000 nmol/kg (1 μmol/kg) i.v., listed as urocontrin): hypotension comparable with that of hUII
Effect on hUII hypotensive action (anaesthetized rats; [4]): significantly reduced
Effect on hUII pressor effect (anaesthetized rats; [4]): keeping intact
Effect on hUII pressor effect (anaesthetized rats; 1000 nmol/kg bolus, 30 min before hUII 10 nmol/kg, listed as urocontrin): preserving
Effect on biphasic response induced by URP (anaesthetized rats; 1000 nmol/kg, URP 10 nmol/kg): no effect
Response to a second hUII injection after pre-treatment (anaesthetized rats; [Bip^4]URP 1000 nmol/kg 30 min before two hUII doses (10 nmol/kg, 30 min interval)): complete absence of a response

Source: patent publication US9340575B2, “Agonists and antagonists of the urotensinergic system” (INSTITUT NATIONAL DE LA RECHERCHE SCIENTIFIQUE, priority 2011, dated 2016)
